According to article PMC5103216, “Novel Agonist Bioisosteres and Common Structure-Activity Relationships for The Orphan G Protein-Coupled Receptor GPR139” (Scientific Reports, 2016):
Entries after “also recorded” stand apart in the source; their conditions may differ. Where two headings read alike, the source gives them in different places.

Experiments:
GPR139 [1] = molecular target: T1, GPR139 (Homo sapiens, UniProt Q6DWJ6); experiment: IP-One HTRF assay measuring Gq activation in CHO-139; assay type: cell-based
T1 sequence (Q6DWJ6 1-353): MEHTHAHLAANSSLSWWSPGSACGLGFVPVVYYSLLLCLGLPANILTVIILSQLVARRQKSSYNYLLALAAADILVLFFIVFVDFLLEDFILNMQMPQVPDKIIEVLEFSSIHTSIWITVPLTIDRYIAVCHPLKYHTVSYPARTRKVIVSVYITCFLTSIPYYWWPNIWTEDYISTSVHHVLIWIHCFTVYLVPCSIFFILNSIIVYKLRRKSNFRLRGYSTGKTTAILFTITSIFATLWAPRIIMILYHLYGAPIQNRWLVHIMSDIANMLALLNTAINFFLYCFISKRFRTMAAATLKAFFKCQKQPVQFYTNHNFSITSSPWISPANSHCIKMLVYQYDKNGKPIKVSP
Method: Figure 3 IP-One HTRF® assay measuring Gq activation. Concentration-response curves of 1a, 7c (racemic), L-Trp, L-Phe, DL43, DL126, DL24, DL22, DL132 and DL130 on (A) CHO-139 and (B) CHO-M1 in the IP-One assay (final conc of LiCl = 20 mM). The dotted line represent the [IP1] response from (A) 10 μM 1a and (B) 1 μM carbachol, which is an agonist for the muscarinic acethylcholine receptor M1 that activates the Gq coupled pathway. The graphs are means ± SEM based on three independent experiments performed in triplicates.
The IP-One assay was performed as described in the work by Thomsen et al.[28], with few modifications. Breifly, CHO-139 and CHO-M1 were detached and re-suspended to a concentration of 10 million cells/mL. 5 μL 2x concentrated compound (+40 mM LiCl) and 5 μL cell suspension (50,000 cells/well) was mixed. The plate was sealed and incubated at 37 °C for 1 hour. Next, 10 μL detection reagents (lysis buffer containing 2.5% Eu^3+-anti-IP1 antibody and 2.5% IP1-d2) was added and the plate was incubated for 1 hour at room temperature. The plate was read on an Envision (PerkinElmer, Waltham, MA, USA). The time resolved-fluorescence resonance energy transfer (TR-FRET) 665 nm/615 nm ratio, which is inversely proportional to the inositol monophosphate (IP1) accumulation, was used to determine the concentration of the IP1 response.

GPR139 [2] = molecular target: T1, GPR139; experiment: Fluo-4 Ca2+-assay in CHO-k1 cells stably expressing GPR139 (CHO-GPR139); assay type: cell-based; settings: for Emax: CHO-K1, relative to 1a
Method: Compound 1a[11] was kindly provided by H. Lundbeck A/S, Denmark. Compound 7c (Enamine no: Z31449867) was tested as a racemate, as the (S)-form described by Janssen et al. was not commercially available. All compounds were dissolved to 20 mM in DMSO (Sigma, D2650) and subsequently diluted in a HEPES buffer (HBSS (Invitrogen, 14025) supplemented with 20 mM HEPES + 1 mM MgCl2 + 1 mM CaCl2, pH = 7.4) to a final concentration 0.5% DMSO in the assay. The DMSO level was kept constant for all concentrations of all compounds. DMSO was confirmed not to have any activity by itself at this concentration. L-Tryptophan (T0254) and L-Phenylalanine (P2126) were obtained from Sigma-Aldrich and dissolved directly in buffer.
All compounds were tested on a CHO-k1 cell line stably expressing GPR139 (CHO-GPR139) kindly provided by H. Lundbeck A/S, Denmark, and also on a CHO-k1 cell line stably expressing the M1 receptor (CHO-M1) (The Missouri S&T cDNA Resource Center, #CEM100TN00) to check for specificity. The CHO-GPR139 was grown in Dulbecco’s modified eagle medium (DMEM) F12-Kaighn’s (Gibco, 21127) supplemented with 10% dialysed fetal bovine serum (Gibco, 26400, United States origin), 1% GlutaMAX^TM-I (100X) (Gibco, 35050), and 100 units/mL penicillin and 100 μg/mL streptomycin (Gibco, 15140) and 1.0 mg/mL geneticin (Invitrogen, 1181103). CHO-M1 was grown in Ham’s F12 (Gibco, 21765) supplemented with 10% fetal bovine serum (Gibco, 10270, South America origin) +100 units/mL penicillin and 100 μg/mL streptomycin (Invitrogen, 15140–122) and 0,25 mg/mL geneticin (Life Technologies, 11811–031). Compound 1a and carbamoylcholine chloride (Sigma-Aldrich, C4382) were used as positive controls in the two cell lines, respectively.
30.000 cells/well were plated in black 96-well plates with flat clear bottoms (Corning, Falcon, 353219) and incubated overnight. The Fluo-4 dye loading solution (Invitrogen, F36206) was prepared according to the manufacturer’s instructions by dissolving it in HEPES buffer supplemented with 2.5 mM probenecid. 50 μL dye loading solution was added to each well. Cells were incubated with the Fluo-4 dye for 60 min at 37 °C, then washed with 100 μL HEPES buffer. 100 μL HEPES buffer supplemented with 2.5 mM probenecid was then added to each well and incubated in 10 minutes at 37 °C before measurement. 33 μL of the test compounds (4x concentrated) were added automatically after baseline measurements. Intracellular calcium change was recorded on a NOVOstar instrument (BMG Labtech) at 37 °C with an excitation filter of 485 nm and an emission filters 520 nm. Data originate from three independent experiments in triplicates.

GPR139 [3] = molecular target: T1, GPR139; set-up: method as in ref 13, 14 (Dvorak et al.); settings: 14 (Dvorak et al.), cited from earlier work; for EC50: mean of at least three experiments; for Emax: relative to L-Trp
[4] = CHO-GPR139, mean of at least three experiments

Compound: CC(NC(=O)CNC(=O)c1cccc(Cl)c1)c1ccccc1 (racemic) [7c (racemic)]
- EC50 (GPR139 [1]; IP-One HTRF assay, CHO-139, 20 mM LiCl): 490 nM
- Emax (GPR139 [1]; IP-One HTRF assay, relative to compound 1a, 7c at 10 μM and L-Trp at 20 mM (highest concentration tested)): 120^(*) %
- agonist type (GPR139 [1]; IP-One assay, compared to compound 1a): super-agonists

Compound: COc1cc(OC)cc(C(=O)NNC(=O)c2cccc3ccccc23)c1 [DL96]
- GPR139 agonist activity (in words) (GPR139 [2]; CHO-GPR139): loss of activity; also recorded: Inactive

Compound: CN(C(=O)CNC(=O)c1ccc2c(c1)OCO2)C1CCc2ccccc21 (stereo not drawn) [DL131]
- EC50 (GPR139 [2]; [4]): 1090 nM
- Emax (GPR139 [2]): 101%

Compound: CCn1c(C)nc2cc(C(=O)NNC(=O)Cc3coc4ccc5ccccc5c34)ccc21 [DL85]
- EC50 (GPR139 [2]; [4]): 1020 nM
- Emax (GPR139 [2]): 95%
- EC50 (GPR139 [2]; values in text): 1020 nM

Compound: C[C@H](NCCNC(=O)c1cccc(Cl)c1)c1ccccc1 [compound 9]
- EC50 (GPR139 [3]): > 10000 nM

Compound: CCN1C(C)=NC2C=C(C(=O)NNC(=O)c3c(-c4ccccc4)noc3C)C=CC21 (stereo not drawn) [DL83]
- EC50 (GPR139 [2]; values in text): > 10000 nM

Compound: C[C@H](NC(=O)CNC(=O)c1cccc(OC(F)(F)F)c1)c1ccccc1 [7j]
- Emax (GPR139 [3]): 129%

Compound: C[C@H](NC(=O)CNCc1cccc(Cl)c1)c1ccccc1 [compound 8]
- EC50 (GPR139 [3]): > 10000 nM

Compound: O=C(CN1CCCc2ccccc21)NNC(=O)c1ccc2[nH]cnc2c1 [DL144]
- EC50 (GPR139 [2]; [4]): 1160 nM
- Emax (GPR139 [2]): 96%

Compound: C[C@H](NC(=O)CNC(=O)c1cc(Cl)ccc1Cl)c1ccccc1 [7m]
- Emax (GPR139 [3]): 139%

Compound: CCn1c(C)nc2cc(C(=O)NNC(=O)CC(C)c3ccccc3)ccc21 (stereo not drawn) [DL146]
- EC50 (GPR139 [2]; [4]): 4720 nM
- Emax (GPR139 [2]): 85%
- EC50 (GPR139 [2]; values in Figure 5 and Supplementary Chart 1): 4710 nM

Compound: C=C(C)c1cccc(C(C)(C)NC(=O)NNC(=O)c2ccc3c(c2)nc(C)n3CC)c1 [DL148]
- EC50 (GPR139 [2]; [4]): 1220 nM
- Emax (GPR139 [2]): 100%

Compound: C[C@H](NC(=O)CNC(=O)c1cccc(F)c1)c1ccccc1 [7g]
- Emax (GPR139 [3]): 118%

Compound: C[C@H](NC(=O)CNC(=O)c1cccc(Cl)c1Cl)c1ccccc1 [7k]
- Emax (GPR139 [3]): 113%

Compound: COc1cccc(C(=O)N[C@@H](CO)C(=O)N[C@@H](C)c2ccccc2)c1 [compound 12]
- Emax (GPR139 [3]): 107%

Compound: C[C@H](NC(=O)CNC(=O)c1ccc(Cl)cc1)c1ccccc1 [7d]
- Emax (GPR139 [3]): 117%

Compound: COc1cccc(C(=O)NCC(=O)N[C@@H](C)c2ccccc2)c1 [7h]
- Emax (GPR139 [3]): 146%

Compound: C[C@H](NC(=O)CNC(=O)c1cc(Cl)cc(Cl)c1)c1ccccc1 [7n]
- Emax (GPR139 [3]): 119%

Compound: COc1cccc(C(=O)N[C@H](C)C(=O)N[C@@H](C)c2ccccc2)c1 [compound 11]
- Emax (GPR139 [3]): 88%

Compound: Cc1cccc(C(=O)NCC(=O)N[C@@H](C)c2ccccc2)c1 [7e]
- Emax (GPR139 [3]): 137%

Compound: C[C@H](NC(=O)CNC(=O)c1cccc(C(F)(F)F)c1)c1ccccc1 [7i]
- Emax (GPR139 [3]): 134%

Compound: C[C@H](NC(=O)CNC(=O)c1ccc(Cl)c(Cl)c1)c1ccccc1 [7l]
- Emax (GPR139 [3]): 106%

Compound: COc1cc(OC)cc(C(=O)NCC(=O)N[C@@H](C)c2ccccc2)c1 [7q]
- Emax (GPR139 [3]): 149%

Compound: C[C@H](NC(=O)CNC(=O)c1ccccc1)c1ccccc1 [7a]
- Emax (GPR139 [3]): 130%

Compound: C[C@H](NC(=O)CNC(=O)c1cc(F)cc(Cl)c1)c1ccccc1 [7o]
- Emax (GPR139 [3]): 124%

Compound: COc1cccc(C(=O)N[C@@H](C)C(=O)N[C@@H](C)c2ccccc2)c1 [compound 10]
- Emax (GPR139 [3]): 143%

Compound: C[C@H](NC(=O)CNC(=O)c1cc(Cl)cc(Br)c1)c1ccccc1 [7p]
- Emax (GPR139 [3]): 113%

Compound: C[C@H](NC(=O)CNC(=O)c1cccc(C#N)c1)c1ccccc1 [7f]
- Emax (GPR139 [3]): 129%

Compound: COc1cc(OC)cc(C(=O)NCCC(=O)N2CCCc3ccccc32)c1 [DL154]
- EC50 (GPR139 [2]; [4]): 1500 nM
- Emax (GPR139 [2]): 91%
